According to patent publication US7300943B2, “GSK-3 inhibitors” (Pfizer Inc., priority 2003, dated 2007):
Counter-ions that a name gives are not always drawn.

Molecular target: T1, GSK-3 (Homo sapiens, UniProt P49841)
T1 construct: made in house
Experiment: GSK-3 inhibition, cell-free 33P-ATP peptide substrate SPA assay
Assay type: biochemical
Settings: read-out: inhibitory activity, expressed as IC50's, against GSK-3
Method: The specific activities of the compounds of formula (I) in inhibiting GSK-3 can be determined in both cell-free and cell-based assays, both of which have been previously described in the relevant art. See, for example, U.S. Pat. Nos. 6,417,185 and 6,489,344, the disclosures of which are incorporated herein by reference in their entirety.
A cell-free assay can be generally carried out by incubating GSK-3 with a peptide substrate, radiolabeled ATP (e.g., for example, γ^33P- or γ^32P-ATP, both of which are available from Amersham; Arlington Heights, Ill.), magnesium ions, and the compound to be assayed. […] The amount of γ^33P or γ^32P remaining in each well after washing is then quantified to determine the amount of radiolabeled phosphate incorporated into the peptide substrate. […]
Another example of a GSK-3 assay, similar to the one described hereinabove, is as follows: enzyme activities are assayed as the incorporation of ^33P from gamma phosphate of ^33P-ATP (Amersham; Arlington Heights, Ill.; catalog #AH-9968) into biotinylated peptide substrate PKTP-KKAKKL. […] The final concentration of ATP is 0.5 μM (final specific radioactivity of 4 μCi/nmol), and the final concentration of substrate is 0.75 μM. […] Radioactivity associated with the beads is then quantified by scintillation counting. […]

T1 sequence (P49841 whole entry): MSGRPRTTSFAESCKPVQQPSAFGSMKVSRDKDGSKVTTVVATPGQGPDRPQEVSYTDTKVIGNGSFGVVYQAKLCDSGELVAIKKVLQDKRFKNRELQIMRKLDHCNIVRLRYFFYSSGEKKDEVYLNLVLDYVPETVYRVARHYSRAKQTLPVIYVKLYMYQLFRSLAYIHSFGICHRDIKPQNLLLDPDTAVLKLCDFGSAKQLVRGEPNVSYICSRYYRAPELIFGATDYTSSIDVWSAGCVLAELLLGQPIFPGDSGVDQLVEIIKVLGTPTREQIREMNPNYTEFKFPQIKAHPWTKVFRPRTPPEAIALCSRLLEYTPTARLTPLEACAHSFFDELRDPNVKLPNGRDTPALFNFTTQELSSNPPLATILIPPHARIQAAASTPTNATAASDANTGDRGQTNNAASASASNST

- IC50: 36 nM
Compound: O=c1cc(-c2ccccc2)c2c(C3CCC3)[nH]nc2[nH]1 [Example 5, 3-Cyclobutyl-4-phenyl-2,7-dihydro-pyrazolo[3,4-b]yridin-6-one hydrochloride]
